The text below walks through data of patent publication US10676468B2, “N-(3-heteroarylaryl)-4-arylarylcarboxamides and analogs as hedgehog pathway inhibitors and use thereof” (IMPACT Therapeutics, Inc., priority 2012, dated 2020).

Structures can show the parent of a compound that is named as a salt.

Holding throughout (assay type): cell-based, mouse
The subject of assay [1] is Hedgehog Signaling Pathway. As to the kind of experiment: SAG-induced differentiation of C3H10T1/2 cells into osteoblastic cells, intracellular alkaline phosphatase activity. The note with it: Mus musculus, C3H 10T1/2, 120 h, 1 μM SAG, 5 days, alkaline phosphatase activity (OD405), read-out: IC50 values of compounds that inhibit Hh pathway. Put shortly: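 Mouse C3H10T1/2 cells were induced with SAG and exposed to compound (10 μM to 1 nM) for 5 days at 37 °C. Cells were lysed in 0.2% Triton, and alkaline phosphatase activity was read as OD405 over 30 min at 37 °C in pH 9.8 substrate buffer. IC50 came from a non-linear fit of background-subtracted OD405 against log concentration.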

For assay [2], the system named is Hedgehog Signaling Pathway. In words: SHH-induced differentiation of C3H10T1/2 cells into osteoblastic cells, intracellular alkaline phosphatase activity. Conditions: 10 nM SHH-N, 5 days, alkaline phosphatase activity (OD405), read-out: IC50 values of compounds that inhibit Hh pathway. The gist of the method:
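Hedgehog pathway inhibition was taken as loss of SHH-driven osteoblastic differentiation. Test compound (10 nM–10 μM) plus SHH-N (10 nM) was applied to C3H10T1/2 cells for 5 days, then lysate phosphatase turnover was measured as the 30-min OD405 change at 37 °C. IC50 was fitted from activity versus log dose.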

For assay [3], the system named is Hedgehog Signaling Pathway. As to the kind of experiment: Gli-Luc reporter gene cell assay in C3H10T1/2/Gli-Luc cells stimulated with Shh. Conditions: 30 nM Shh, luciferase activity (RLU), read-out: IC50 values of compounds that inhibit Hh pathway. From the text:
The Application of Reporter Gene Cell Assay for the Determination of the Inhibitory Activity of N-(3-(1H-benzo[d]imidazol-2-yl)-4-chlorophenyl)-2-methyl-4-((2S,6R)-2,6-dimethylmorpholino) benzamide and Analogs on Hedgehog Signaling Pathway
The binding of Sonic hedgehog (Shh) to its receptor Patched 1 initiates numerous intracellular signal transmission, and leads to the nuclear translocation of Gli and the elevated transcription of Gli target genes. When C3H10T1/2 cells are stably transfected with the Gli-Luc plasmids containing the luciferase gene under the control of Gli response element and stimulated with Shh, the expression of luciferase is elevated. Luciferase activity is indicative of the hedgehog signaling pathway activity. Therefore, the inhibitory activity of compounds on hedgehog signaling pathway can be measured using the luciferase activity when the transfected cells are stimulated with Shh.
The day before experiment, C3H10T1/2/Gli-Luc cells in log phase of growth were seeded into 96 well plate at a density of 20000 cells per well. The cells were maintained in DMEM (Hyclone) supplemented with 10% FBS (Hyclone) and incubated at 37° C. with 5% CO2 overnight. The compounds to be examined were diluted into 7 different concentrations by series of dilutions (⅓ and 1/10), and the eighth point of concentration is the DMSO control. Those solutions were diluted 100-fold in the fresh growth medium. The cells were taken out of the incubator and the medium of cultured cells were removed. Then, each well was added in an orderly manner with 80 μL of fresh growth medium, 20 μL of medium pre-dilution of positive compound and compounds to be tested, as well as 100 μL of growth medium containing 30 nM of Shh. The cells are returned to the incubator, and incubated for 24 hours.
Measurement of luciferase activity: After taking the 96 well plate out of the incubator, the supernatants were discarded and the cells were washed twice with PBS. Thereafter, each well was dispensed with 20 μL of lysis buffer (Promega E1531), and the plate was shaken for 30 min at room temperature. Following transferring 5 μL of cell lysate into 384 well plate (Greiner 781074), adding 25 μL of luciferase reaction buffer (Promega E1501) into each well and mixing the plate, the relative light unit (RLU) was immediately captured by VarioSkan Flash.
The data were analyzed with Prism 5 software (GraphPad). The relative light unit (RLU) was plotted against the log concentration of testing compound, and the obtained plot was fitted with non-linear curve fitting equation to calculate IC50 values. The curve fitting equation is Y (RLU)=Bottom+(Top−Bottom)/(1+10^((X−Log IC50))). X is the logarithm of concentration. Y is the measure of relative light unit (RLU).
The calculated IC50 value is a measurement of the inhibitory activity of compound to Hh pathway.
A general note: In a reporter assay the amount or activity of a reporter protein is the signal.

Setting [4] is: Mus musculus, C3H 10T1/2, 120 h.

With `Cc1cc(-c2ccc(C#N)cc2)ccc1C(=O)Nc1ccc(Cl)c(-c2nc3ccccc3[nH]2)c1` [Example 6, N-(3-(1H-benzo[d]imidazol-2-yl)-4-chlorophenyl)-3-methyl-4′-cyanobiphenyl-4-carboxamide], the IC50 (as a rule, the concentration that gives 50% inhibition) stood at 19 nM in assay [1]; 2.6 nM in assay [2] (setting [4]); 3.3 nM in assay [3] (Mus musculus, C3H 10T1/2, 24 h).
With `Cc1cc(-c2ccc([N+](=O)[O-])cc2)ccc1C(=O)Nc1ccc(Cl)c(-c2nc3ccccc3[nH]2)c1` [Example 7, N-(3-(1H-benzo[d]imidazol-2-yl)-4-chlorophenyl)-3-methyl-4′-nitrobiphenyl-4-carboxamide], the IC50 amounted to 25 nM in assay [1]; 3.5 nM in assay [2] (setting [4]); 4.6 nM in assay [3] (Mus musculus, C3H 10T1/2, 24 h).
For `Cc1cc(-c2ccc(Cl)cc2)ccc1C(=O)Nc1ccc(Cl)c(-c2nc3ccccc3[nH]2)c1` [Example 8, N-(3-(1H-benzo[d]imidazol-2-yl)-4-chlorophenyl)-3-methyl-4′-chlorobiphenyl-4-carboxamide], the IC50 was 86 nM in assay [1]; 3.6 nM in assay [2] (setting [4]); 4.6 nM in assay [3] (Mus musculus, C3H 10T1/2, 24 h).
For the compound `Cc1cc(C(=O)Nc2ccc(Cl)c(-c3nc4ccccc4[nH]3)c2)ccc1-c1ccc(C(F)(F)F)cc1` [Example 14, N-(3-(1H-benzo[d]imidazol-2-yl)-4-chlorophenyl)-2-methyl-4′-(trifluoromethyl)biphenyl-4-carboxamide], the half-inhibitory concentration (IC50) in assay [1] stood at 80 nM; in assay [2] (setting [4]), 5.5 nM; in assay [3] (Mus musculus, C3H 10T1/2, 24 h), 9.5 nM.
Turning to `O=C(Nc1ccc(Cl)c(-c2nc3ccccc3[nH]2)c1)c1ccc(-c2ccc(C(F)(F)F)cc2)cc1Cl` [Example 18, N-(3-(1H-benzo[d]imidazol-2-yl)-4-chlorophenyl)-3-chloro-4′-(trifluoromethyl)biphenyl-4-carboxamide], the 50% inhibitory concentration (IC50) in assay [1] turned out to be 60 nM; in assay [2] (setting [4]), 3.7 nM; in assay [3] (Mus musculus, C3H 10T1/2, 24 h), 8.2 nM.
The corresponding values for `Cc1cc(-c2ccc(C(F)(F)F)cc2)ccc1C(=O)Nc1ccc(Cl)c(-c2nc3ccccc3[nH]2)c1` [Example 21, N-(3-(1H-benzo[d]imidazol-2-yl)-4-chlorophenyl)-3-methyl-4′-(trifluoromethyl)biphenyl-4-carboxamide] are 30 nM, 2.3 nM and 5.8 nM.
Turning to `O=C(Nc1ccc(Cl)c(-c2nc3ccccc3[nH]2)c1)c1ccc(-c2ccc(C(F)(F)F)cc2)cc1` [Example 22, N-(3-(1H-benzo[d]imidazol-2-yl)-4-chlorophenyl)-4′-(trifluoromethyl)biphenyl-4-carboxamide], the IC50 came to 124 nM in assay [1]; 15 nM in assay [2] (setting [4]); 16 nM in assay [3] (Mus musculus, C3H 10T1/2, 24 h).
`C[C@@H]1CN(c2ccc(C(=O)Nc3ccc(Cl)c(-c4nc5ccc(F)cc5[nH]4)c3)c(Cl)c2)C[C@H](C)N1C` [Example 131, N-(3-(6-fluoro-1H-benzo[d]imidazol-2-yl)-4-chlorophenyl)-2-chloro-4-((3S,5R)-3,4,5-trimethylpiperazin-1-yl)benzamide Dihydrochloride]: the IC50 in assay [2] (Dihydrochloride) was 7.2 nM; in assay [3] (24 hours, Dihydrochloride), 1.2 nM.
As to `CC(C)c1cnc(-c2cc(NC(=O)c3ccc(N4C[C@@H](C)N(C)[C@@H](C)C4)cc3C(F)(F)F)ccc2Cl)[nH]1` [Example 171, N-(3-(5-isopropyl-1H-imidazol-2-yl)-4-chlorophenyl)-2-(trifluoro-methyl)-4-((3S,5R)-3,4,5-trimethylpiperazin-1-yl)benzamide], the IC50 in assay [3] (Mus musculus, C3H 10T1/2, 24 h) amounted to 0.46 nM.
For `Cc1cnc(-c2cc(NC(=O)c3ccc(N4C[C@@H](C)N(C)[C@@H](C)C4)cc3C)ccc2Cl)[nH]1` [Example 186, N-(3-(5-methyl-1H-imidazol-2-yl)-4-chlorophenyl)-2-methyl-4-((3S,5R)-3,4,5-trimethylpiperazin-1-yl)benzamide Dihydrochloride], in assay [3] (Mus musculus, C3H 10T1/2, 24 h), the IC50 is 3.4 nM.
Consider `CCc1cnc(-c2cc(NC(=O)c3ccc(N4C[C@@H](C)N(C)[C@@H](C)C4)cc3C)ccc2Cl)[nH]1` [Example 187, N-(3-(5-ethyl-1H-imidazol-2-yl)-4-chlorophenyl)-2-methyl-4-((3S,5R)-3,4,5-trimethylpiperazin-1-yl)benzamide Dihydrochloride], for which the IC50 in assay [3] (Mus musculus, C3H 10T1/2, 24 h) is 0.45 nM.
Still for that read-out and setting: the figure for `CCc1cnc(-c2cc(NC(=O)c3ccc(N4C[C@@H](C)N(C)[C@@H](C)C4)cc3Cl)ccc2Cl)[nH]1` [Example 188, N-(3-(5-ethyl-1H-imidazol-2-yl)-4-chlorophenyl)-2-chloro-4-((3S,5R)-3,4,5-trimethylpiperazin-1-yl)benzamide Dihydrochloride] is 1 nM.
For the compound `Cc1c(C(=O)Nc2ccc(Cl)c(-c3ncc(C(C)C)[nH]3)c2)ccc(N2C[C@@H](C)N(C)[C@@H](C)C2)c1F` [Example 190, N-(3-(5-isopropyl-1H-imidazol-2-yl)-4-chlorophenyl)-2-methyl-3-fluoro-4-((3S,5R)-3,4,5-trimethylpiperazin-1-yl)benzamide Dihydrochloride], the 50% inhibitory concentration (IC50) in assay [3] (Mus musculus, C3H 10T1/2, 24 h) worked out at 0.2 nM.
For the compound `CC(C)c1cnc(-c2cc(NC(=O)c3cc(F)c(N4C[C@@H](C)N(C)[C@@H](C)C4)cc3Cl)ccc2Cl)[nH]1` [Example 191, N-(3-(5-isopropyl-1H-imidazol-2-yl)-4-chlorophenyl)-2-chloro-5-fluoro-4-((3S,5R)-3,4,5-trimethylpiperazin-1-yl)benzamide Dihydrochloride], the IC50 in assay [3] (Mus musculus, C3H 10T1/2, 24 h) is 0.34 nM.
On to `CCN1[C@H](C)CN(c2ccc(C(=O)Nc3ccc(Cl)c(-c4ncc(C(C)C)[nH]4)c3)c(Cl)c2)C[C@@H]1C` [Example 192, N-(3-(5-isopropyl-1H-imidazol-2-yl)-4-chlorophenyl)-2-chloro-4-((3S,5R)-4-ethyl-3,5-dimethylpiperazin-1-yl)benzamide Dihydrochloride], for which the half-maximal inhibitory concentration (IC50) in assay [3] (Mus musculus, C3H 10T1/2, 24 h) turned out to be 0.52 nM.
In the case of `C[C@@H]1CN(c2cc(Cl)c(C(=O)Nc3ccc(Cl)c(-c4ncc(C5CC5)[nH]4)c3)cc2F)C[C@H](C)N1C` [Example 193, N-(3-(5-cyclopropyl-1H-imidazol-2-yl)-4-chlorophenyl)-2-chloro-5-fluoro-4-((3S,5R)-3,4,5-trimethylpiperazin-1-yl)benzamide Dihydrochloride], the IC50 in assay [3] (Mus musculus, C3H 10T1/2, 24 h) was determined as 0.56 nM.
With `CCN1[C@H](C)CN(c2ccc(C(=O)Nc3ccc(Cl)c(-c4ncc(C5CC5)[nH]4)c3)c(Cl)c2)C[C@@H]1C` [Example 194, N-(3-(5-cyclopropyl-1H-imidazol-2-yl)-4-chlorophenyl)-2-chloro-4-((3S,5R)-4-ethyl-3,5-dimethylpiperazin-1-yl)benzamide Dihydrochloride], the IC50 in assay [3] (Mus musculus, C3H 10T1/2, 24 h) is 0.63 nM.
Turning to `C[C@@H]1CN(c2ccc(C(=O)Nc3ccc(Cl)c(-c4nc5cscc5[nH]4)c3)c(C(F)(F)F)c2)C[C@H](C)N1C` [Example 200, N-(3-(1H-thieno[3,4-d]imidazol-2-yl)-4-chlorophenyl)-2-(trifluoromethyl)-4-((3S,5R)-3,4,5-trimethylpiperazin-1-yl) Benzamide], in assay [3] (24 hours), the IC50 was 0.28 nM.
For the compound `CCN1[C@H](C)CN(c2ccc(C(=O)Nc3ccc(Cl)c(-c4nc5cscc5[nH]4)c3)c(Cl)c2)C[C@@H]1C` [Example 203, N-(3-(1H-thieno[3,4-d]imidazol-2-yl)-4-chlorophenyl)-2-chloro-4-((3S,5R)-4-ethyl-3,5-dimethylpiperazin-1-yl)benzamide], in assay [3] (Mus musculus, C3H 10T1/2, 24 h), the half-maximal inhibitory concentration (IC50) came to 0.29 nM.
